In paper PMC6331797, “Escherichia coli ASKA Clone Library Harboring tRNA-Specific Adenosine Deaminase (tadA) Reveals Resistance towards Xanthorrhizol” (Molecules, 2015) one finds Kd data, which are given here for one compound.

pKd: −log10 of the molar value.

What all share (assay): tryptophan fluorescence quenching titration with purified protein
Type in all cases: binding

In experiment [1] the target is T1, tadA (tRNA-specific adenosine deaminase) (Escherichia coli, UniProt P68398, F149G).
T1 construct: his-tagged tadA

The target of experiment [2] is T2, tadA (tRNA-specific adenosine deaminase) (Escherichia coli, UniProt P68398).
T2 construct: his-tagged tadA

Experiment [3] has as its target T3, tadA (tRNA-specific adenosine deaminase) (Escherichia coli, UniProt P68398, A143V).
T3 construct: his-tagged tadA

T1 sequence (P68398 whole entry F149G): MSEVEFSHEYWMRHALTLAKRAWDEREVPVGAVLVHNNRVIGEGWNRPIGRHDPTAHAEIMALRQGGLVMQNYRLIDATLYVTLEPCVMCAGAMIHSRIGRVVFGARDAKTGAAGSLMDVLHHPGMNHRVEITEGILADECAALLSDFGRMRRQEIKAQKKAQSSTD
T2 sequence (P68398 whole entry): as the sequence (P68398 whole entry F149G) above, with G149F counted along it
T3 sequence (P68398 whole entry A143V): as the sequence (P68398 whole entry F149G) above, with A143V, G149F counted along it

What is called pKd is the negative decadic logarithm of the Kd, by convention in mol/L. A low value points to a high Kd. Turning to `CC(C)=CCC[C@@H](C)c1ccc(C)c(O)c1` [xanthorrhizol], the pKd in experiment [1] is 4.48; in experiment [2], 4.72; in experiment [3], 3.96.
